Experimental data published in US7429564B2, “Oral insulin therapy” (Emisphere Technologies, Inc., priority 2002, dated 2008).
Where “and” joins values, the source holds several entries; their conditions need not be identical. Identical values can stand only once. Marks after values point to notes of the source that are not given here.

How the values were obtained:
plasma glucose = assay: Example 5: plasma glucose pharmacodynamics; format: in vivo, human
Experimental: For insulin/4-CNAB treatment Groups 2 and 3, subjects' blood samples (1 drop per sample) were drawn at 15 minutes before dosing, and at 5, 10, 15, 20, 25, 30, 35, 40, and 50 minutes and at 1, 1.25, 1.5, 1.75, 2, 2.5, 3, 4, 6, 8 and 12 hours post-dose (21 samples per treatment for Insulin/4-CNAB dosing groups) for plasma glucose, insulin and C-peptide measurements. For the 4-CNAB alone treatment Group 1, blood samples were collected before dosing (−15 minutes), and at 30 minutes and at 2 hr post-dose for blood glucose measurements. For the insulin alone control group (minimum 3 subjects), blood samples (3 mL in sodium heparin tube) were drawn at 15 minutes before dosing, and at 10, 20, 30, 40, 50 minutes and 1, 1.25, 2, 2.5, 3 and 6 hr post-dose (12 samples per treatment). The blood samples for glucose were assayed in real time using a Glucometer®. These measurements were used for detection of onset of hypoglycemia, so rescue action could be taken where necessary. Plasma glucose, insulin and C-peptide measurements were done according to standard procedures.
Plasma glucose was measured based on a timed-endpoint method using a BECKMAN Synchron CX system that mixes exact proportions of reagents that catalyse the phosphorylation of glucose. The Synchron CX measures changes in the absorbance spectrum at 340 nm at a fixed time interval. The change in absorbance is directly proportional to the concentration of glucose in the sample.
On the basis of plasma concentrations of glucose, PD analysis was performed using WinNonlin™ Professional version 3.2. The profiles for glucose, glucose change from baseline and glucose percentage change from baseline were evaluated up to 6 hours as food was given 6 hours following insulin treatment. The following PD parameters were computed for plasma glucose concentration: AURC(0-2), AURC(0-t) (total response), Rmax (minimum value), tRmax and concentrations (R^b) and corresponding time (t^b) immediately prior to intervention for hypoglycemia. The following PD parameters were computed for plasma glucose concentration change from baseline: AUEC(0-2), AUEC(0-t) (baseline subtracted), Emax (baseline subtracted), tEmax (obtained without interpolation), percent change from baseline and concentrations (E^c) and corresponding time (t^c) immediately prior to intervention for hypoglycemia.
Similarly, in order to take into account baseline levels of glucose, PD analysis was conducted based on the percent change (decrease or increase) in glucose concentration from the baseline, where baseline was taken as the pre-dose concentration levels, rather than absolute values only. The glucose concentration percent change from baseline values were also calculated, and profiles were tabulated and plotted. Thus, […]

aorta mRNA expression = assay: GeneChip analysis of aorta mRNA expression after oral and SC dosing of insulin; format: in vivo, Sprague-Dawley rats; details: for Changes in aorta mRNA levels (control groups): component given orally alone
Experimental: A total of 60 male Sprague-Dawley rats were fasted for 24 hours and then anesthetized with Thorazine (1.5 mg/kg, im) and Ketamine (44 mg/kg, im). They were then divided into the following 5 treatment groups: • 1. H2O (p.o. 1 mL/kg) • 2. Carrier (p.o., 1 mL/kg; 200 mg/kg) • 3. Insulin (p.o., 1 ml/kg; 0.5 mg/kg) • 4. Insulin and Carrier (p.o., 1 ml/kg; 0.5 mg/kg Insulin and 200 mg/kg 1182) • 5. Insulin (s.c., 0.05 mg/kg) • There were twelve animals per group, with three being sacrificed at 30, 60, 120 and 180 minutes. For serum insulin and blood glucose monitoring, 0.4 mL of blood was drawn from the tail artery. Following euthanasia, an aorta sample was removed and snap-frozen in liquid nitrogen. All animal studies where conducted in accordance with the IACUC approved protocols.
Total RNA was prepared from the frozen tissue sample following the protocol for use of Trizol Reagent (Invitrogen, Inc., Carlsbad, Calif.). The samples were then further cleaned up by use of the Qiagen Midi Kit (Valencia, Calif.). Quality of each RNA sample was assessed using agarose gel electrophoresis and UV absorbance at 260 and 280. Acceptable RNA samples were pooled in equal quantities on a mass basis. This pooled sample was used to prepare cDNA following the protocol provided by Affymetrix. This sample was then used as template in an ii: vitro transcription labeling and amplification reaction using the Enzo BioArray High Yield RNA Transcript Labeling Kit (Affymetrix Inc., Santa Clara, Calif.). 15 μg of labeled transcript was then fragmented and used to prepare a hybridization solution as described in the Affymetrix GeneChip Protocol, Affymetrix, Inc., 2000.
The samples were hybridized to a Test Array and 5′ to 3′ ratios, detection limit, and image quality were assessed to ensure the quality of the labeled sample. Acceptable samples were then hybridized to an Affymetrix Rat U34A array. Washing and staining of these arrays was performed using the standard Affymetrix protocols. Array quality was assessed in the same manner as the Test array. Acceptable samples were analyzed both in the expression patterns seen across the group as well as pair wise in the following manner:
Fold change were determined by the Affymetrix Microarray Suite Software package and values below 2 fold were considered insignificant. This software package analysis compares the individual members of each probe set to determine a Difference Call. In this report all calculated fold changes are used in the figures, however in the results and discussion only those fold changes that received an Increasing or Decreasing call by the Affymetrix software were used to draw conclusions.

[1] = 10 Units SC, hypoglycemic subjects
[2] = 150 Units oral insulin alone, all subjects
[3] = 150 Units oral insulin alone, non-hypoglycemic subjects

## O=C(O)CCCNC(=O)c1ccc(Cl)cc1O [4-CNAB, 4-[(4-chloro, 2-hydroxybenzoyl)amino]butanoic acid]
Plasma glucose; 4-CNAB alone, oral
  Effect on plasma glucose levels: no significant effect on plasma glucose levels
Aorta mRNA expression
  Changes in aorta mRNA levels (control groups): no consistent and significant changes in mRNA levels in the aorta

## SC insulin: human regular insulin injected subcutaneously (Humulin R or equivalent; Calbiochem insulin in the rat studies)
Plasma glucose; 10 Units SC, carrier 0, unaudited data
  % Max Glucose Reduction: 32.3 ± 9.6%
Plasma glucose; 10 Units SC, all subjects
  Glucose change AUEC(0-2): -0.71 ± 1.32 mmol·h/L
  Glucose change AUEC(0-6): -1.40 ± 4.41 mmol·h/L
  Glucose change from baseline Emax: -2.28 ± 0.5 mmol/L and -2.28 ± 0.40 mmol/L
  Glucose change tEmax, median: 1.00 h
  Maximum % change of glucose from baseline up to 6 h: −39.82±8.26%
  Plasma glucose AURC(0-2): 10.40 ± 1.36 mmol·h/L
  Plasma glucose AURC(0-6): 32.02 ± 4.66 mmol·h/L
  Plasma glucose Rmax (minimum concentration): 3.31 ± 0.42 mmol/L
  Plasma glucose tRmax, median: 1.00 h
Plasma glucose; [1]
  Glucose change AUEC(0-6): 1.00 mmol·h/L
  Glucose change E^c (immediately prior to recovery from hypoglycemia): -0.71 ± 1.32 mmol/L
  Glucose change from baseline Emax: -2.28 ± 0.40 mmol/L
  Glucose change tEmax, median: 1.00 h
  Maximum % change of glucose from baseline up to 6 h: −39.82 ± 8.26%
  Plasma glucose AURC(0-2): 10.40 ± 1.36 mmol·h/L
  Plasma glucose AURC(0-6): 32.02 ± 4.66 mmol·h/L
  Plasma glucose R^b (immediately prior to recovery from hypoglycemia): 3.45 ± 0.41 mmol/L
  Plasma glucose Rmax (minimum concentration): 3.31 ± 0.42 mmol/L
  Plasma glucose tRmax, median: 1.00 h
  Plasma glucose t^b, median: 1.00 h
Aorta mRNA expression; 180 minutes
  ICAM-1 mRNA: increased
  c-myc mRNA: significant increase
Aorta mRNA expression; vs sham
  IL-6 mRNA: significant increase

## oral insulin alone: recombinant human zinc insulin given orally without delivery agent
Plasma glucose; 150 Units oral insulin alone
  Change in glucose concentrations: only a slight change in glucose concentrations
Plasma glucose; [2]
  Glucose change AUEC(0-2): -0.63 ± 0.77 mmol·h/L
  Glucose change from baseline Emax: -0.79 ± 0.43 mmol/L
  Glucose change tEmax, median: 6.00 h
  Maximum % change of glucose from baseline up to 6 h: −12.41 ± 6.48%
  Plasma glucose AURC(0-2): 11.06 ± 0.69 mmol·h/L
  Plasma glucose AURC(0-6): 32.15 ± 1.41 mmol·h/L
  Plasma glucose Rmax (minimum concentration): 5.08 ± 0.20 mmol/L
  Plasma glucose tRmax, median: 6.00 h
Plasma glucose; 150 Units oral insulin alone, all subjects, AUEC(0-t) for 6 h sampling schedule
  Glucose change AUEC(0-6): −3.01 ± 2.44^d mmol · h/L
Plasma glucose; [3]
  Glucose change AUEC(0-2): -0.63 ± 0.77 mmol·h/L
  Glucose change from baseline Emax: -0.79 ± 0.43 mmol/L
  Glucose change tEmax, median: 6.00 h
  Maximum % change of glucose from baseline up to 6 h: −12.41 ± 6.48%
  Plasma glucose AURC(0-2): 11.06 ± 0.69 mmol·h/L
  Plasma glucose Rmax (minimum concentration): 5.08 ± 0.20 mmol/L
  Plasma glucose tRmax, median: 6.00 h
Plasma glucose; 150 Units oral insulin alone, non-hypoglycemic subjects, AUEC(0-t) for 6 h sampling schedule
  Glucose change AUEC(0-6): −3.01 ± 2.44^d mmol · h/L
Plasma glucose; 150 Units oral insulin alone, non-hypoglycemic subjects, AURC(0-t) for 6 h sampling schedule
  Plasma glucose AURC(0-6): 32.15 ± 1.41^c mmol · h/L
Aorta mRNA expression
  Changes in aorta mRNA levels (control groups): no consistent and significant changes in mRNA levels in the aorta
